We go through 29 compounds from patent US8263597B2, “Indazole compounds as CCR1 receptor antagonists” (Boehringer Ingelheim International GmbH, priority 2008, dated 2012).

The first experiment has as its target T1, CCR1 (Homo sapiens, UniProt P32246).
T1 sequence (P32246 1-355): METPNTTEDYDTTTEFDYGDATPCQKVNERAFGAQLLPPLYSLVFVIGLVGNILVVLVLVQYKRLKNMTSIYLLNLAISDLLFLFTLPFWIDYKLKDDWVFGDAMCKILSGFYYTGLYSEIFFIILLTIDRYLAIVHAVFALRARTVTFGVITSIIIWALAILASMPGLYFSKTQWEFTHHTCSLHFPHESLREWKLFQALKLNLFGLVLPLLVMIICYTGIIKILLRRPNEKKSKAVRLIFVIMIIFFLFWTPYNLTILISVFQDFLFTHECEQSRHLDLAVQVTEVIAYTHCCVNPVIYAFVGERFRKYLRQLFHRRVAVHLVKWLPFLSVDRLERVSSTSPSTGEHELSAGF
The experiment in a line: Calcium flux in response to MIP-1 alpha in CCR1-transfected cells, Method B (Calcium 4 dye, […] FDSS6000). The format is cell-based. Conditions: cells stably expressing recombinant CCR1 and G-alpha-16; MIP-1 alpha at EC80; 30 minutes at 37 C then 30 minutes at room temperature. As to the method: (§1) Compounds are assessed for the ability to block the interaction of CCR1 and its ligand in a functional cellular assay measuring calcium flux in response to MIP-1α in CCR1-transfected cells.
Method B: Non-adherent cells purchased from Chemicon Corporation (HTS005C), stably expressing recombinant CCR1 and G-alpha-16 are grown in RPMI 1640 medium (Mediatech 10-080-CM) supplemented with 10% FBS, 0.4 mg/mL Geneticin and penicillin/streptomycin. On the day of the assay, the cells are loaded with Calcium 4 dye (Molecular Devices R7448) with Probenecid (Invitrogen P346400) at 8E5 cells/mL for 1 hour at room temperature. After 1 hour, they are seeded in a 384-well tissue culture-treated plate at a density of 20,000 cells/well. Appropriately diluted test compound is added to the well to achieve a top concentration of 3,000 nM (diluted 4-fold with 10 doses total). The final concentration of DMSO is 1%. The buffer is HBSS (Invitrogen 14025) with 20 mM HEPES at pH 7.4. The cells incubate 30 minutes at 37 C and then 30 minutes at room temperature. The plates are transferred to the […] FDSS6000 where MIP-1 alpha in 1% BSA is added at the EC80 final concentration. All plates must be read within 4 hours of the start of dye-loading. Wells +/−MIP-1alpha containing diluted DMSO instead of compound serve as the controls. Data are analyzed using Activity Base software.
(A change in cytosolic calcium serves as a functional read-out for many receptors and channels.)
As for `CC[C@H](NC(=O)c1cccc2c1cnn2-c1ccc(F)cc1)c1ccc(S(C)(=O)=O)nc1` [1-(4-Fluoro-phenyl)-1H-indazole-4-carboxylic acid [(S)-1-(6-methanesulfonyl-pyridin-3-yl)-propyl]-amide], the IC50 was 2 nM.

The next experiment deals with T1, CCR1. In words: Calcium flux in response to MIP-1 alpha in CCR1-transfected cells, Method A (Fluo-4 NW, FLIPR TETRA). The experiment is classed as cell-based. Particulars: cells stably expressing recombinant CCR1 and G-alpha-16; MIP-1 alpha at EC80; 1 hour incubation at room temperature. As to the method:
as §1
On the day of the assay, the cells are transferred to a beaker and dye-loaded in bulk using a Fluo-4 NW Calcium Assay Kit with probenecid (Invitrogen F36205) at 0.8E6 cells/mL for 1 hour at room temperature. After 1 hour, they are seeded in a 384-well tissue culture-treated plate at a density of 20,000 cells/well. Appropriately diluted test compound is added to the well to achieve a top concentration of 3,000 nM (diluted 3-fold with 10 doses total). The final concentration of DMSO is 1%. […] The cells are allowed to incubate 1 hour in the dark at room temperature. The plates are transferred to the FLIPR TETRA where MIP-1 alpha in 1% BSA is added at the EC80 final concentration. Wells +/−MIP-1 alpha containing diluted DMSO instead of compound serve as the controls.
In the case of `CS(=O)(=O)c1ccc(CNC(=O)c2cccc3c2cnn3-c2ccc(F)cc2)c(Cl)c1` [1-(4-Fluoro-phenyl)-1H-indazole-4-carboxylic acid 2-chloro-4-methanesulfonyl-benzylamide], the concentration for half-maximal inhibition (IC50) came out at 6.7 nM.

`CNS(=O)(=O)c1ccc(CNC(=O)c2cccc3c2cnn3-c2ccc(F)cc2)c(Cl)c1` [1-(4-Fluoro-phenyl)-1H-indazole-4-carboxylic acid 2-chloro-4-methylsulfamoyl-benzylamide]: the IC50 is 4 nM.

Turning to `CNS(=O)(=O)c1ccc(CNC(=O)c2cccc3c2cnn3-c2ccc(F)cc2)c(F)c1` [1-(4-Fluoro-phenyl)-1H-indazole-4-carboxylic acid 2-fluoro-4-methylsulfamoyl-benzylamide], the IC50 was 5.4 nM.

`COc1cc(CNC(=O)c2cccc3c2cnn3-c2ccc(F)cc2)cc(OC)c1` [1-(4-Fluoro-phenyl)-1H-indazole-4-carboxylic acid 3,5-dimethoxy-benzylamide]: the half-maximal inhibitory concentration (IC50) amounted to 25 nM.

Take `O=C(NCc1cccc(Br)c1)c1cccc2c1cnn2-c1ccc(F)cc1` [1-(4-Fluoro-phenyl)-1H-indazole-4-carboxylic acid 3-bromo-benzylamide]: the half-maximal inhibitory concentration (IC50) was 76 nM.

With `CC(=O)NCCNS(=O)(=O)c1ccc(CNC(=O)c2cccc3c2cnn3-c2ccc(F)cc2)cc1` [1-(4-Fluoro-phenyl)-1H-indazole-4-carboxylic acid 4-(2-acetylamino-ethylsulfamoyl)-benzylamide], the half-maximal inhibitory concentration (IC50) is 110 nM.

On to `O=C(NCc1ccc(S(=O)(=O)NCCO)cc1)c1cccc2c1cnn2-c1ccc(F)cc1` [1-(4-Fluoro-phenyl)-1H-indazole-4-carboxylic acid 4-(2-hydroxy-ethylsulfamoyl)-benzylamide], for which the IC50 came to 9.2 nM.

Turning to `COCCNS(=O)(=O)c1ccc(CNC(=O)c2cccc3c2cnn3-c2ccc(F)cc2)cc1` [1-(4-Fluoro-phenyl)-1H-indazole-4-carboxylic acid 4-(2-methoxy-ethylsulfamoyl)-benzylamide], the IC50 came to 10 nM.

For the compound `CN(C)C1CCN(S(=O)(=O)c2ccc(CNC(=O)c3cccc4c3cnn4-c3ccc(F)cc3)cc2)CC1` [1-(4-Fluoro-phenyl)-1H-indazole-4-carboxylic acid 4-(4-dimethylamino-piperidine-1-sulfonyl)-benzylamide], the IC50 came out at 23 nM.

For `CC(C)NS(=O)(=O)Cc1ccc(CNC(=O)c2cccc3c2cnn3-c2ccc(F)cc2)cc1` [1-(4-Fluoro-phenyl)-1H-indazole-4-carboxylic acid 4-(isopropylsulfamoyl-methyl)-benzylamide], the IC50 amounted to 55 nM.

Consider `O=C(NCc1ccc(S(=O)(=O)N2CCOCC2)cc1)c1cccc2c1cnn2-c1ccc(F)cc1` [1-(4-Fluoro-phenyl)-1H-indazole-4-carboxylic acid 4-(morpholine-4-sulfonyl)-benzylamide], for which the 50% inhibitory concentration (IC50) is 14 nM.

`O=C(NCc1ccc(S(=O)(=O)NC2CCOCC2)cc1)c1cccc2c1cnn2-c1ccc(F)cc1` [1-(4-Fluoro-phenyl)-1H-indazole-4-carboxylic acid 4-(tetrahydro-pyran-4-ylsulfamoyl)-benzylamide]: the IC50 was 20 nM.

As for `CN1CCC(N(C)S(=O)(=O)c2ccc(CNC(=O)c3cccc4c3cnn4-c3ccc(F)cc3)cc2)CC1` [1-(4-Fluoro-phenyl)-1H-indazole-4-carboxylic acid 4-[methyl-(1-methyl-piperidin-4-yl)-sulfamoyl]-benzylamide], the IC50 worked out at 44 nM.

For `N#Cc1cc(CNC(=O)c2cccc3c2cnn3-c2ccc(F)cc2)ccn1` [1-(4-Fluoro-phenyl)-1H-indazole-4-carboxylic acid (2-cyano-pyridin-4-ylmethyl)-amide], the IC50 came out at 120 nM.

For `COc1cc(CNC(=O)c2cccc3c2cnn3-c2ccc(F)cc2)ccn1` [1-(4-Fluoro-phenyl)-1H-indazole-4-carboxylic acid (2-methoxy-pyridin-4-ylmethyl)-amide], the IC50 is 22 nM.

In the case of `CC(NC(=O)c1cccc2c1cnn2-c1ccc(F)cc1)c1cccc(C(F)(F)F)c1` (centres unmarked) [1-(4-Fluoro-phenyl)-1H-indazole-4-carboxylic acid [1-(3-trifluoromethyl-phenyl)-ethyl]-amide], the IC50 came to 14 nM.

Turning to `CCC[C@H](NC(=O)c1cccc2c1cnn2-c1ccc(F)cc1)c1cccc(Br)c1` [1-(4-Fluoro-phenyl)-1H-indazole-4-carboxylic acid [(S)-1-(3-bromo-phenyl)-butyl]-amide], the IC50 is 19 nM.

On to `CNS(=O)(=O)c1ccc(CNC(=O)c2cc(S(C)(=O)=O)cc3c2cnn3-c2ccc(F)cc2)cc1` [1-(4-Fluoro-phenyl)-6-methanesulfonyl-1H-indazole-4-carboxylic acid 4-methylsulfamoyl-benzylamide], for which the IC50 came to 28 nM.

As to `CNS(=O)(=O)c1ccc(CNC(=O)c2cc(C)cc3c2cnn3-c2ccc(F)cc2)cc1` [1-(4-Fluoro-phenyl)-6-methyl-1H-indazole-4-carboxylic acid 4-methylsulfamoyl-benzylamide], the IC50 came to 20 nM.

On to `CS(=O)(=O)c1cccc(CNC(=O)c2cc(C#N)cc3c2cnn3-c2ccc(F)cc2)c1` [6-Cyano-1-(4-fluoro-phenyl)-1H-indazole-4-carboxylic acid 3-methanesulfonyl-benzylamide], for which the IC50 was determined as 2 nM.

In the case of `CN1CCC(NS(=O)(=O)c2ccc(CNC(=O)c3cc(C#N)cc4c3cnn4-c3ccc(F)cc3)cc2)CC1` [6-Cyano-1-(4-fluoro-phenyl)-1H-indazole-4-carboxylic acid 4-(1-methyl-piperidin-4-ylsulfamoyl)-benzylamide], the IC50 worked out at 18 nM.

Take `CN1CCN(S(=O)(=O)c2ccc(CNC(=O)c3cc(C#N)cc4c3cnn4-c3ccc(F)cc3)cc2)CC1` [6-Cyano-1-(4-fluoro-phenyl)-1H-indazole-4-carboxylic acid 4-(4-methyl-piperazine-1-sulfonyl)-benzylamide]: the IC50 was determined as 1.5 nM.

Consider `CN1CCC(N(C)S(=O)(=O)c2ccc(CNC(=O)c3cc(C#N)cc4c3cnn4-c3ccc(F)cc3)cc2)CC1` [6-Cyano-1-(4-fluoro-phenyl)-1H-indazole-4-carboxylic acid 4-[methyl-(1-methyl-piperidin-4-yl)-sulfamoyl]-benzylamide], for which the IC50 is 5.1 nM.

Turning to `CNS(=O)(=O)c1ccc(CNC(=O)c2cc(C#N)cc3c2cnn3-c2ccc(F)cc2)cc1` [6-Cyano-1-(4-fluoro-phenyl)-1H-indazole-4-carboxylic acid 4-methylsulfamoyl-benzylamide], the IC50 was determined as 0.3 nM.

As to `N#Cc1cc(C(=O)NCc2ccc(Br)nc2)c2cnn(-c3ccc(F)cc3)c2c1` [6-Cyano-1-(4-fluoro-phenyl)-1H-indazole-4-carboxylic acid (6-bromo-pyridin-3-ylmethyl)-amide], the IC50 was 21 nM.

For the compound `CS(=O)(=O)c1ccc(CNC(=O)c2cc(C#N)cc3c2cnn3-c2ccc(F)cc2)cn1` [6-Cyano-1-(4-fluoro-phenyl)-1H-indazole-4-carboxylic acid (6-methanesulfonyl-pyridin-3-ylmethyl)-amide], the IC50 was determined as 7.1 nM.

In the case of `CS(=O)(=O)Nc1ccc(CNC(=O)c2cc(C#N)cc3c2cnn3-c2ccc(F)cc2)cn1` [6-Cyano-1-(4-fluoro-phenyl)-1H-indazole-4-carboxylic acid (6-methanesulfonylamino-pyridin-3-ylmethyl)-amide], the IC50 was determined as 4.4 nM.

As to `CCOC(=O)COc1cc(CNC(=O)c2cccc3c2cnn3-c2ccc(F)cc2)ccn1` [[4-({[1-(4-Fluoro-phenyl)-1H-indazole-4-carbonyl]-amino}-methyl)-pyridin-2-yloxy]-acetic acid ethyl ester], the IC50 was 140 nM.

Usually IC50 stands for the concentration needed to halve the response being measured.
